Results on 59 compounds are retold here after patent US12357631B2 (priority 2018, dated 2025).

As a reminder, the EC50 is the concentration that produces a half-maximal response. Low readings indicate greater potency, high ones weaker potency.

The assay addresses PB2 (Influenza A virus, UniProt P03428). As to the kind of experiment: biochemical. Type of assay: binding.

A value given as a limit tells only on which side of the number the result lay.

Chain of PB2 (P03428 whole entry, looked up): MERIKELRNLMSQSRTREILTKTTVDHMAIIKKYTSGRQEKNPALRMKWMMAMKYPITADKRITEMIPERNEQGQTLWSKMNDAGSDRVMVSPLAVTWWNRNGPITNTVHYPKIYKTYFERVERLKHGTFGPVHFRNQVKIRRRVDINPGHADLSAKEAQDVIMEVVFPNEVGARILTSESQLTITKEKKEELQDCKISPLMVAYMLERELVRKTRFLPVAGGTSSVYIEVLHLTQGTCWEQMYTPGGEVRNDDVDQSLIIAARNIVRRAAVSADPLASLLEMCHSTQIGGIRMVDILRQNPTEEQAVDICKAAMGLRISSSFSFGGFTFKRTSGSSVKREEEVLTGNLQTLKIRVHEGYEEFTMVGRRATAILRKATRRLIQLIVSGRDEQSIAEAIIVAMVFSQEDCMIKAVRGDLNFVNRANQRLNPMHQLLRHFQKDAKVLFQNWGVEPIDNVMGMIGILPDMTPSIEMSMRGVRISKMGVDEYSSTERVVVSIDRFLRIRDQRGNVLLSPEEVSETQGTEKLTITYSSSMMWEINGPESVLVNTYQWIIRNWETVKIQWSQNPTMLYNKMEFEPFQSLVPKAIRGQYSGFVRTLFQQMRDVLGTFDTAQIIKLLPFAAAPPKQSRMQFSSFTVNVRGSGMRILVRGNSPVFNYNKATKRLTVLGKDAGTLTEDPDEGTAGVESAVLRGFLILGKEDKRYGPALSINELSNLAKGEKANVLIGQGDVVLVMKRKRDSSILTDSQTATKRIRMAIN

Consider `O=C(N[C@H]1CCC[C@@H](Nc2nc(-c3c[nH]c4ncc(F)cc34)ncc2F)C1)N1CCCc2ccccc21` [Compound A1], for which the EC50 was above 100 µM.

`O=C(N[C@H]1CCC[C@@H](Nc2nc(-c3c[nH]c4ncc(F)cc34)ncc2F)C1)N1CCc2ccccc2C1` [Compound A2] had an EC50 above 100 µM.

On to `O=C(N[C@H]1CCC[C@@H](Nc2nc(-c3c[nH]c4ncc(F)cc34)ncc2F)C1)N1Cc2ccccc2C1` [Compound A3], for which the EC50 was 5 to 25 µM.

In turn, `CCOCCOCCCC1CCCN(C(=O)N[C@@H]2CCC[C@H](Nc3nc(-c4c[nH]c5ncc(F)cc45)ncc3F)C2)C1` (some centres unmarked) [Compound A4] came in with a concentration giving a half-maximal response (EC50) of 50 to 100 µM.

In turn, `CCOCCOCCCCCN1CC(=O)N([C@@H]2CCC[C@H](Nc3nc(-c4c[nH]c5ncc(F)cc45)ncc3F)C2)C1=O` [Compound A5] showed an EC50 above 100 µM.

Compound `CCOCCOCCCC1CCN(C(=O)N[C@@H]2CCC[C@H](Nc3nc(-c4c[nH]c5ncc(F)cc45)ncc3F)C2)C1` (some centres unmarked) [Compound A7] had a concentration for a half-maximal effect (EC50) of 5 to 25 µM.

In turn, `CCOc1ccccc1OCCCC1CCCN(C(=O)N[C@H]2CCC[C@@H](Nc3nc(-c4c[nH]c5ncc(F)cc45)ncc3F)C2)C1` (some centres unmarked) [Compound A8] gave an EC50 above 100 µM.

The compound `O=C(N[C@H]1CCC[C@@H](Nc2nc(-c3c[nH]c4ncc(F)cc34)ncc2F)C1)N1CCCC(CCCOCCOCc2ccccc2)C1` (some centres unmarked) [Compound A9] displayed an EC50 above 100 µM.

`O=C(N[C@H]1CCC[C@@H](Nc2nc(-c3c[nH]c4ncc(F)cc34)ncc2F)C1)N1CCCC(CCCOCCO)C1` (some centres unmarked) [Compound A10]: the EC50 is 5 to 25 µM.

The compound `CCOCCOCCCC1CCN(C(=O)N[C@H]2CCC[C@@H](Nc3nc(-c4c[nH]c5ncc(F)cc45)ncc3F)C2)C1` (some centres unmarked) [Compound A11] yielded an EC50 of 5 to 25 µM.

`O=C(N[C@H]1CCC[C@@H](Nc2nc(-c3c[nH]c4ncc(F)cc34)ncc2F)C1)N1CCc2ccccc21` [Compound A14] showed a concentration for a half-maximal effect (EC50) of 50 to 100 µM.

Consider `CCOCCOCCCc1cncc(C(=O)N[C@H]2CCC[C@@H](Nc3nc(-c4c[nH]c5ncc(F)cc45)ncc3F)C2)c1` [Compound A23], for which the EC50 is above 100 µM.

Compound `CCOCCOCCCc1ccnc(C(=O)N[C@H]2CCC[C@@H](Nc3nc(-c4c[nH]c5ncc(F)cc45)ncc3F)C2)c1` [Compound A24] came in with an EC50 of 50 to 100 µM.

Compound `CCCCCOCCCc1ccnc(C(=O)N[C@@H]2CCC[C@H](Nc3nc(-c4c[nH]c5ncc(F)cc45)ncc3F)C2)c1` [Compound A27] registered a concentration giving a half-maximal response (EC50) above 100 µM.

With `CCCOCCCCCc1ccnc(C(=O)N[C@@H]2CCC[C@H](Nc3nc(-c4c[nH]c5ncc(F)cc45)ncc3F)C2)c1` [Compound A28], the EC50 was above 100 µM.

As to `CCOc1ccccc1OCCCc1ccnc(C(=O)N[C@@H]2CCC[C@H](Nc3nc(-c4c[nH]c5ncc(F)cc45)ncc3F)C2)c1` [Compound A29], the EC50 is above 100 µM.

Compound `CCOCCCCCCc1ccnc(C(=O)N[C@H]2CCC[C@@H](Nc3nc(-c4c[nH]c5ncc(F)cc45)ncc3F)C2)c1` [Compound A30] returned an EC50 above 100 µM.

`CCCCOCCCCc1ccnc(C(=O)N[C@H]2CCC[C@@H](Nc3nc(-c4c[nH]c5ncc(F)cc45)ncc3F)C2)c1` [Compound A31] gave an EC50 above 100 µM.

For the compound `CCOCCOCCCc1cc(C(=O)N[C@@H]2CCC[C@H](Nc3nc(-c4c[nH]c5ncc(F)cc45)ncc3F)C2)ncn1` [Compound A33], the EC50 is above 100 µM.

For `O=C(N[C@@H]1CCC[C@H](Nc2nc(-c3c[nH]c4ncc(F)cc34)ncc2F)C1)c1cc(CCCOCCOCc2ccccc2)ccn1` [Compound A34], the EC50 is above 100 µM.

Consider `O=C(N[C@H]1CCC[C@@H](Nc2nc(-c3c[nH]c4ncc(F)cc34)ncc2F)C1)c1ccccn1` [Compound A35], for which the EC50 is 50 to 100 µM.

Compound `O=C(N[C@@H]1CCC[C@H](Nc2nc(-c3c[nH]c4ncc(F)cc34)ncc2F)C1)c1cc(CCCOCCOCc2ccc(F)cc2)ccn1` [Compound A36] yielded an EC50 above 100 µM.

Regarding `O=C(N[C@H]1CCC[C@@H](Nc2nc(-c3c[nH]c4ncc(F)cc34)ncc2F)C1)c1cccnc1` [Compound A37], the EC50 was above 100 µM.

The compound `CCOCCCc1ccnc(C(=O)N[C@@H]2CCC[C@H](Nc3nc(-c4c[nH]c5ncc(F)cc45)ncc3F)C2)c1` [Compound A38] registered a 50% effective concentration (EC50) of 25 to 50 µM.

Turning to `O=C(N[C@@H]1CCC[C@H](Nc2nc(-c3c[nH]c4ncc(F)cc34)ncc2F)C1)c1cc(CCCO)ccn1` [Compound A39], the 50% effective concentration (EC50) was below 5 µM.

The compound `CCC(CC)OCCOCCCc1ccnc(C(=O)N[C@@H]2CCC[C@H](Nc3nc(-c4c[nH]c5ncc(F)cc45)ncc3F)C2)c1` [Compound A40] returned an EC50 above 100 µM.

Turning to `CCOCc1ccc(C(=O)N[C@@H]2CCC[C@H](Nc3nc(-c4c[nH]c5ncc(F)cc45)ncc3F)C2)nc1` [Compound A41], the EC50 was 50 to 100 µM.

Take `CCCCc1ccnc(C(=O)N[C@H]2CCC[C@@H](Nc3nc(-c4c[nH]c5ncc(F)cc45)ncc3F)C2)c1` [Compound A42]: the EC50 is above 100 µM.

Compound `CCOCc1ccnc(C(=O)N[C@H]2CCC[C@@H](Nc3nc(-c4c[nH]c5ncc(F)cc45)ncc3F)C2)c1` [Compound A43] yielded an EC50 of 5 to 25 µM.

Compound `CCOCCc1ccnc(C(=O)N[C@H]2CCC[C@@H](Nc3nc(-c4c[nH]c5ncc(F)cc45)ncc3F)C2)c1` [Compound A44] gave an EC50 of 25 to 50 µM.

`COCCOCc1ccnc(C(=O)N[C@@H]2CCC[C@H](Nc3nc(-c4c[nH]c5ncc(F)cc45)ncc3F)C2)c1` [Compound A45] displayed a half-maximal effective concentration (EC50) of 25 to 50 µM.

In turn, `O=C(N[C@H]1CCC[C@@H](Nc2nc(-c3c[nH]c4ncc(F)cc34)ncc2F)C1)c1cc2ccccc2cn1` [Compound A46] came in with an EC50 above 100 µM.

As for `Cc1cccc(C(=O)N[C@H]2CCC[C@@H](Nc3nc(-c4c[nH]c5ncc(F)cc45)ncc3F)C2)n1` [Compound A47], the half-maximal effective concentration (EC50) fell in the range of 5 to 25 µM.

The compound `O=C(O)CCc1ccnc(C(=O)N[C@H]2CCC[C@@H](Nc3nc(-c4c[nH]c5ncc(F)cc45)ncc3F)C2)c1` [Compound A49] returned a concentration giving a half-maximal response (EC50) below 5 µM.

With `O=C(N[C@H]1CCC[C@@H](Nc2nc(-c3c[nH]c4ncc(F)cc34)ncc2F)C1)c1cc(CC(O)CO)ccn1` (some centres unmarked) [Compound A50], the EC50 is below 5 µM.

Compound `Cc1cc(C(=O)N[C@H]2CCC[C@@H](Nc3nc(-c4c[nH]c5ncc(F)cc45)ncc3F)C2)ccn1` [Compound A51] registered an EC50 of 5 to 25 µM.

Compound `CCOc1cccc(-c2ccnc(C(=O)N[C@H]3CCC[C@@H](Nc4nc(-c5c[nH]c6ncc(F)cc56)ncc4F)C3)c2)c1` [Compound A52] gave an EC50 above 100 µM.

Consider `Cc1ccnc(C(=O)N[C@H]2CCC[C@@H](Nc3nc(-c4c[nH]c5ncc(F)cc45)ncc3F)C2)c1` [Compound A53], for which the EC50 is 5 to 25 µM.

Regarding `O=C(N[C@H]1CCC[C@@H](Nc2nc(-c3c[nH]c4ncc(F)cc34)ncc2F)C1)c1cc(-c2ccccc2)ccn1` [Compound A54], the EC50 lay within 5 to 25 µM.

For `O=C(N[C@H]1CCC[C@@H](Nc2nc(-c3c[nH]c4ncc(F)cc34)ncc2F)C1)c1cnc2ccccc2c1` [Compound A55], the EC50 is 5 to 25 µM.

For the compound `Cc1ccc(C(=O)N[C@H]2CCC[C@@H](Nc3nc(-c4c[nH]c5ncc(F)cc45)ncc3F)C2)cn1` [Compound A56], the EC50 was below 5 µM.

`O=C(N[C@H]1CCC[C@@H](Nc2nc(-c3c[nH]c4ncc(F)cc34)ncc2F)C1)c1cncc(F)c1` [Compound A57] showed an EC50 of 5 to 25 µM.

The compound `CCCCc1ccc(C(=O)N[C@@H]2CCC[C@H](Nc3nc(-c4c[nH]c5ncc(F)cc45)ncc3F)C2)nc1` [Compound A58] showed an EC50 of 50 to 100 µM.

`O=C(N[C@@H]1CCC[C@H](Nc2nc(-c3c[nH]c4ncc(F)cc34)ncc2F)C1)c1cc(CCCOCCOCCO)ccn1` [Compound A59]: the EC50 was below 5 µM.

With `O=C(N[C@@H]1CCC[C@H](Nc2nc(-c3c[nH]c4ncc(F)cc34)ncc2F)C1)c1cc(-c2ccc(F)cc2)ccn1` [Compound A60], the EC50 lay within 5 to 25 µM.

The compound `COCc1cccc(-c2ccnc(C(=O)N[C@@H]3CCC[C@H](Nc4nc(-c5c[nH]c6ncc(F)cc56)ncc4F)C3)c2)c1` [Compound A61] showed an EC50 of 25 to 50 µM.

Turning to `CCOc1ccc(-c2ccnc(C(=O)N[C@@H]3CCC[C@H](Nc4nc(-c5c[nH]c6ncc(F)cc56)ncc4F)C3)c2)cc1` [Compound A62], the EC50 lay in the range of 5 to 25 µM.

Compound `O=C(N[C@@H]1CCC[C@H](Nc2nc(-c3c[nH]c4ncc(F)cc34)ncc2F)C1)c1ccc(-c2ccccc2)nc1` [Compound A63] came in with an EC50 of 5 to 25 µM.

The compound `Cc1cncc(C(=O)N[C@@H]2CCC[C@H](Nc3nc(-c4c[nH]c5ncc(F)cc45)ncc3F)C2)c1` [Compound A64] returned an EC50 below 5 µM.

The compound `O=C(N[C@H]1CCC[C@@H](Nc2nc(-c3c[nH]c4ncc(F)cc34)ncc2F)C1)c1cncc2ccccc12` [Compound A65] showed an EC50 of 25 to 50 µM.

Consider `O=C(N[C@@H]1CCC[C@H](Nc2nc(-c3c[nH]c4ncc(F)cc34)ncc2F)C1)c1cc(Oc2ccccc2)ccn1` [Compound A66], for which the concentration for a half-maximal effect (EC50) was above 100 µM.

As for `O=C(N[C@@H]1CCC[C@H](Nc2nc(-c3c[nH]c4ncc(F)cc34)ncc2F)C1)c1cncc(-c2ccccc2)c1` [Compound A67], the EC50 is above 100 µM.

As for `CCOc1cccc(-c2cncc(C(=O)N[C@@H]3CCC[C@H](Nc4nc(-c5c[nH]c6ncc(F)cc56)ncc4F)C3)c2)c1` [Compound A68], the EC50 lay within 25 to 50 µM.

Turning to `CCOCCC(=O)N(CC)Cc1ccnc(C(=O)N[C@@H]2CCC[C@H](Nc3nc(-c4c[nH]c5ncc(F)cc45)ncc3F)C2)c1` [Compound A69], the 50% effective concentration (EC50) was below 5 µM.

In turn, `CCOCc1cccc(COCc2ccnc(C(=O)N[C@H]3CCC[C@@H](Nc4nc(-c5c[nH]c6ncc(F)cc56)ncc4F)C3)c2)c1` [Compound A71] showed an EC50 above 100 µM.

`CCc1cccc(OCCOCc2ccnc(C(=O)N[C@H]3CCC[C@@H](Nc4nc(-c5c[nH]c6ncc(F)cc56)ncc4F)C3)c2)c1` [Compound A72] showed an EC50 of 25 to 50 µM.

In turn, `COc1ccc(CNC(=O)OCc2ccnc(C(=O)N[C@H]3CCC[C@@H](Nc4nc(-c5c[nH]c6ncc(F)cc56)ncc4F)C3)c2)cc1` [Compound A73] returned an EC50 above 100 µM.

Consider `CCOCCOCc1cccc(-c2ccnc(C(=O)N[C@H]3CCC[C@@H](Nc4nc(-c5c[nH]c6ncc(F)cc56)ncc4F)C3)c2)c1` [Compound A90], for which the EC50 lay within 50 to 100 µM.

As for `O=C(NCc1ccccc1)OCc1ccnc(C(=O)N[C@@H]2CCC[C@H](Nc3nc(-c4c[nH]c5ncc(F)cc45)ncc3F)C2)c1` [Compound A91], the EC50 is above 100 µM.
